Laboratory results published in patent US7687546B2, “Quaternary ammonium compound, process for producing the same, therapeutic agent for cerebrovascular disorder, and therapeutic agent for heart disease” (Activus Pharma Co., Ltd., priority 2004, dated 2010).
Where two headings read alike, the source gives them in different places.

What was measured:
[1] = test system: ouabain-induced arrhythmia model; experiment: Ouabain-induced arrhythmia model in guinea pigs; assay type: in vivo, guinea pigs (Hartley strain); conditions: dose 3 mg/kg i.v. immediately before ouabain infusion 3 μg/0.1 ml/min
From the text: After guinea pigs (Hartley strain, age 6 weeks) were anesthetized with urethane, induction electrodes were attached to the hind limbs and fore limbs, and standard 2-lead electrocardiograms were monitored with an animal electrocardiogram analysis system (ECG-01, Japan Energy). After confirming that the waveforms of the electrocardiogram and heart rate were within the normal range, an incision was made in the epidermis of the neck followed by inserting a breathing tube into the trachea and cannulating a polyethylene tube into the left external jugular vein and left common carotid artery.
Immediately after administering a compound of the present invention dissolved in a physiological saline solution into the right external jugular vein, ouabain was continuously infused at 3 μg/0.1 ml/min through the cannulated polyethylene tube into the left external jugular vein using a syringe pump (Atom Syringe Pump 1235 (trade name), Atom Medical Corporation).
In addition, the polyethylene tube cannulated in the left common carotid artery was connected to a pressure transducer (P23XL, Gould Electronics), and fed to a pressure processor signal conditioner (TA-11, Gould Electronics) to record blood pressure and heart rate on a thermal plate recorder.
The results were assessed by comparing the dose (μg/kg) of ouabain administered until the appearance of arrhythmia and occurrence of cardiac arrest (arrhythmia is not induced even if a large dose of ouabain is administered if antiarrhythmic effects are high). Furthermore, a solvent dose group (administered only physiological saline in an amount equal to that of the test drug groups), and a positive control group administered a typical antiarrhythmic disopyramide phosphate (physiological saline solution), were also provided.

[2] = test system: model of myocardial ischemia-reperfusion injury; experiment: Model of myocardial ischemia-reperfusion injury in rats; assay type: in vivo; conditions: 3 mg/kg i.v. 5 minutes before 5 minutes coronary ligation, 8 rats per group; for Incidence of Ventricular Fibrillation (%) / Incidence of Ventricular Tachycardia (%): monitored 5 minutes after reperfusion; for Mortality Rate (%): then reperfusion
[3] = test system: middle cerebral artery occlusion and reperfusion model; experiment: Cerebral infarction model: middle cerebral artery occlusion and reperfusion (infarct area, neurological symptoms, motor function); assay type: in vivo, rats (Crj: Wistar strain); design: Improvement of neurological symptoms* (total score): scale not given here; conditions: rats, average of 10 animals; for Improvement of neurological symptoms* (total score) / Improvement of motor function (time stayed on rotor rod: seconds): single i.v. dose 3 mg/kg; for Improvement of neurological symptoms* (total score): 24 hours after occlusion, total score per Table 4, smaller = greater effect; for Improvement of motor function (time stayed on rotor rod: seconds): rotor rod 14 rotations per minute, maximum 1 minute; for Cerebral infarction reduction rate (%): single intravenous dose 3 mg/kg immediately before reperfusion, vs physiological saline group, bigger = greater effect
Experimental: In this example, a cerebral infarction model was prepared using rats in which reperfusion injury was induced by ischemia and then reperfusion of the middle cerebral artery using the obturator method. The efficacy of compounds of the present invention following single-dose intravenous administration at dose of 3 mg/kg was evaluated in terms of infarct area, neurological symptoms and motor function.
In addition, Edaravone (trade name, Mitsubishi Pharma Corporation) was used as a reference compound. The compounds of the present invention were stored in a refrigerator under protection from light, while Edaravone (trade name) was stored at room temperature under protection from light.
Compounds of present invention: 2 mL of physiological saline was added directly to tube containing 3 mg aliquots of a compound of the present invention to dissolve and prepare solutions having a concentration of 3 mg/2 mL. These samples were prepared at the time of use.
Edaravone: Since Edaravone is an injectable solution having a concentration of 30 mg/20 mL, the required amounts were divided up and used.
Rats: Crj: Wistar strain, males, age 7 weeks (Charles River Laboratories Japan, Inc.)
The test compounds were administered in a single dose into the tail vein using a 1 mL syringe and 27 G injection needle immediately before the reperfusion.
The rats were anesthetized by intraperitoneal administration of sodium pentobarbital at dose of 40 mg/kg (Nembutal (trade name), Dainippon Pharmaceutical Co., Ltd.), and a middle cerebral artery occlusion and reperfusion model was prepared in accordance with the method of Koizumi et al. (Non-Patent Document 2). Namely, the animals were warmed to 37° C. and held in the dorsal position while breathing spontaneously. A midline cervical incision was made, and then the right external carotid artery and right internal carotid artery were separated without damaging the vagus nerve. The right common carotid artery and right external carotid artery were ligated, and a suture was attached to the origin of the internal carotid artery in preparation for ligation and maintenance of occlusion following insertion of an obturator into the internal carotid artery. Moreover, a small incision was made in the right common carotid artery, an obturator provided with an approximately 17 mm silicon-coated suture was inserted into the internal carotid artery, and the internal carotid artery was ligated. Two hours after ligation, the obturator was removed under unanesthesia to reperfuse. Furthermore, flexion of the contralateral forelimb was confirmed 30 minutes after occlusion of the middle cerebral artery.
The following neurological symptoms were evaluated 24 hours after occlusion of the middle cerebral artery according to the evaluation method of Petullo et al. (Non-Patent Document 3). Neurological symptoms consisted of flexion of the forelimbs, torso twisting, resistance when pushing on the back of the right or left shoulder (Lateral push), circling, return of the hindlimb to the floor when lifted from the floor (Hindlimb placement), behavior when the head is faced downward on an angle (Inverted angle board) and a locomotor activity test.
Flexion of the forelimbs: flexion of the forelimbs was observed when the animals were lifted up by the tail.
Torso twisting: Torso twisting was observed when the animals were lifted up by the tail.
Lateral push: Resistance was observed when pushing on the back of the right or left shoulder.
Hindlimb placement: The animals were observed as to whether or not the hindlimb immediately returns to the floor after being lifted from the floor when placed on a horizontal floor.
locomotor activity: locomotor activity was observed when the animals were placed in a polycarbonate cage.
The aforementioned tests were scored based on the criteria described in the following documents, followed by calculation of total scores (see Table 4 “Neurological Symptom Evaluation Criteria and Scores”). […]

[4] = test system: model of myocardial ischemia reperfusion injury; experiment: Model of myocardial ischemia-reperfusion injury in dogs; assay type: in vivo; conditions: 3 mg/kg into the femoral vein 10 minutes before 20 minutes coronary occlusion, then reperfusion
Experimental: In order to confirm the efficacy of compounds of the present invention on myocardial infarction and arrhythmia caused by myocardial infarction, a pharmacological study was conducted using a model of myocardial ischemia reperfusion injury in dogs for the compounds used in Example 1.
Dogs having body weights of approximately 10 kg were anesthetized with pentobarbital (trade name) (30 mg/ml/kg) followed by shaving the surgical site after starting artificial respiration. The femoral vein and femoral artery were separated followed by cannulation. The femoral vein was used as the administration route for the test substances, while the femoral artery was used to measure blood pressure.
Next, after opening the left chest, making an incision in the pericardium and exposing the left ventricle, the left coronary artery was separated. A silk suture was passed through the coronary artery to occlude, followed by the attachment of an electromagnetic flow meter probe for measuring blood flow.
In addition, a pair of ultrasound crystal probes was fixed in position to measure changes in ventricular wall length as a indicator of myocardial contractile force, and indwelling needle was installed for measuring left intraventricular pressure. Compounds of the present invention were administered into the femoral vein at 3 mg/kg (15% physiological saline solution) followed 10 minutes later by occluding the coronary artery for 20 minutes, and subsequently reperfusing the coronary artery. Myocardial contraction following ischemia-reperfusion was compared for each group based on a value of 100 for myocardial contraction prior to ischemic reperfusion. In addition, comparisons were also made with a solvent control group administered only physiological saline.

guinea pigs = conditions: guinea pig, in vivo

SMILES	Ouabain (μg/kg) administered until Cardiac arrest [1] [µg/kg]	Ouabain (μg/kg) administered until appearance of Arrhythmia [1] [µg/kg]	Incidence of Ventricular Fibrillation (%) [2] [%]	Incidence of Ventricular Tachycardia (%) [2] [%]	Mortality Rate (%) [2] [%]	Improvement of neurological symptoms* (total score) [3]	Improvement of motor function (time stayed on rotor rod: seconds) [3] [s]	Cerebral infarction reduction rate (%) [3] [%]	Myocardial Contraction (%) (Based on a value of 100% for prior to ischemia-reperfusion) [4]	Occurrence of Arrhythmia (guinea pigs; 3 mg/kg)	Occurrence of cardiac arrest (guinea pigs; 3 mg/kg)	Occurrence of Arrhythmia (guinea pigs; 10 mg/kg)	Occurrence of cardiac arrest (guinea pigs; 10 mg/kg)
C[N+](C)(C)CCOc1ccc(O)c(O)c1C(=O)[O-] [Compound 33]	239	171	12.5	50.0	0	5.90	52.1	52.6	82	No	No	No	No
COc1ccc(C(=O)[O-])cc1OCC[N+](C)(C)C [Compound 39]	229	165	12.5	62.5	12.5	6.80	42.4	37.8	74	No	No	No	No
C[N+](C)(C)CC(O)Oc1ccc(O)c(C(=O)[O-])c1 (stereo not shown) [Compound 56]	244	172	12.5	62.5	25.0	6.55	45.4	40.7	71	No	No	No	No
C[N+](C)(C)CCOc1ccc(S(=O)(=O)[O-])cc1 [Compound 60]	243	170	25.0	62.5	0	6.65	44.2	39.0	88	No	No	No	No
